Laboratory results taken from patent US20240209028A1, “CNP COMPOUNDS” (priority 2022, published 2024).
Starred links: 1 amine or outer side, 2 acyl side, 3 side chain; linkers in the order of their positions; H or OH if unused. Positions of bridges follow the written chain, without caps; N, C: chain ends. Residues, ends and D or L forms follow the SMILES beside them. *: point of attachment. C18 diacid = O=C(O)CCCCCCCCCCCCCCCCC(=O)*; γGlu = O=C(O)[C@H](CCC(=O)[*:2])N[*:1]; AEEA = NCCOCCOCC(=O)O

These compounds were tested against T1, human natriuretic peptide receptor 2 (hNPR2) (Homo sapiens, UniProt P20594) (assay: In vitro hNPR2 activity assay (cGMP GloSensor reporter, HEK293)). Settings: 0% HSA; HEK293-hNPR2/GloSensor cells.
T1 construct: expressed in transfected cells; host or cells: HEK293 (ATCC CRL-1573), clone 35, co-transfected with pGloSensor-42F
T1 sequence (P20594 23-1047): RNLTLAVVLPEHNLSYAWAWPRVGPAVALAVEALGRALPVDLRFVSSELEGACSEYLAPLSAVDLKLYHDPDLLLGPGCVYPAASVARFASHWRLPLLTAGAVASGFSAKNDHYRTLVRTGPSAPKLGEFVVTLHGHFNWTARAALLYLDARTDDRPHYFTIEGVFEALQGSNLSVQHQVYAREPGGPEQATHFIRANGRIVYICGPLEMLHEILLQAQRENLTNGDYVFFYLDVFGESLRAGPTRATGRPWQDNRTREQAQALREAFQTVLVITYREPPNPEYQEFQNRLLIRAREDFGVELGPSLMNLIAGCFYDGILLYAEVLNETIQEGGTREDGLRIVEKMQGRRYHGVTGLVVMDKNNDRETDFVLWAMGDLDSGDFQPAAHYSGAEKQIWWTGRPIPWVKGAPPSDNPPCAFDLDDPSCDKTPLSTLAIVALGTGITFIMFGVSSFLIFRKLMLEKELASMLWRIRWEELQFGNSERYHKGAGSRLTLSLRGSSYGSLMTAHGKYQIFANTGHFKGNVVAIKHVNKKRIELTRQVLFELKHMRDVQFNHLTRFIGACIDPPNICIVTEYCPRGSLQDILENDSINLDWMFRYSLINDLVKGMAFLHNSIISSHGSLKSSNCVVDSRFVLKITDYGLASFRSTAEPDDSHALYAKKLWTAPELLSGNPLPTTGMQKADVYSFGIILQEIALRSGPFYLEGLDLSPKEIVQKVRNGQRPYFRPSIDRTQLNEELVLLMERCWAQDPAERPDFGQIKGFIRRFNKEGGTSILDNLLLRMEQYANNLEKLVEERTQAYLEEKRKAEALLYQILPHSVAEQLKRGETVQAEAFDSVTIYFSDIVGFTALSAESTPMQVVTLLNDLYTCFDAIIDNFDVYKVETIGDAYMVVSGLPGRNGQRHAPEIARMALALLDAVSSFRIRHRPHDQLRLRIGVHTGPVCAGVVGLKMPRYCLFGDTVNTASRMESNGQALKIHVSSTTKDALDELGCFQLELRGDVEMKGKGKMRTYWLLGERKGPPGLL
Assay type: cell-based
Description: To evaluate the in vitro activity of CNP22 (0065; Chem. 1) and CNP compounds of the invention, they were tested for their ability to induce production of cyclic guanosine monophosphate (cGMP) in reporter cells expressing the human natriuretic peptide receptor 2 (hNPR2).
Cell culture: To produce the reporter cell line, HEK293 (ATCC® CRL-1573™) cells were stably transfected with the pGloSensor-42F reporter plasmid (GloSensor cGMP reporter—luciferase, Promega) and an expression plasmid encoding the hNPR2 receptor. A single cell clone was isolated for the reporter cell line. When reporter cells are exposed to an hNPR2 activating compound, hNPR2 cause production of cGMP. […] Active GloSensor luciferase is able to convert luciferin to oxyluciferin, a process that produces bioluminescence. Upon cell lysis and supply of luciferase substrate, luciferase activity can be quantified by detection of luminescence. Therefore, addition of an hNPR2 activating compound and subsequent addition of detection reagent to reporter cells causes generation of luminescence in a dose dependent manner. […] This measure, also referred to as in vitro potency, is reported for all compounds tested. In all the in vitro activity experiments, CNP22 was used as a positive in-plate control for hNPR2 activation. To reduce inter-assay variation, we also report the potency of each compound relative to the potency of the CNP22 control on each plate.
Procedure: HEK293-hNPR2/GloSensor clone 35 cells were continuously cultured in selection medium (DMEM containing 10% FCS, 1% P/S, 200 μg/mL G418 and 100 μg/mL hygromycin). To perform the assay, cells were detached with TrypLE Express (Gibco #12604013), put through a 70 μm cell strainer, counted and seeded in 30 μL/well assay medium (DMEM without phenol red and with 1% P/S) at 10,000 cells/well in white 384-well plates (Perkin Elmer #6007680) overnight. The following day, test compounds were serial diluted in dilution medium (DMEM without phenol red containing 1% OVA (Sigma #A5505 lot 04M7001V), 0.01% Tween20 (Roche #33766700) and 1% P/S) and 10 μL/well of diluted test compounds were subsequently added to the cells. For each compound, ten different concentrations in the range 0.25 μM-10 μM were tested. After 30 min of incubation at 37° C. and 5% CO2, 40 μL/well Bright-Glo detection reagent (Promega #E2650) was added. […] To determine the in vitro potency or EC50 of each test compound, a four parameter logistic regression was done on the raw data for each test compound using the Python package SciPy optimize. The average EC50 values are listed as “hNPR2 0% HSA. [EC50 (nM)]” in Table 2. A relative potency was calculated by the following expression: EC50 (CNP22 in-plate control)/EC50 (test compound)*100, shown as “hNPR2 0% HSA. [EC50% rel CNP]” in Table 2. A minimum of two replicates was measured for each test compound.

SMILES	EC50 [nM]
CC[C@H](C)[C@@H]1NC(=O)[C@H](CCCNC(=N)N)NC(=O)[C@H](CCC(=O)O)NC(=O)[C@H](CC(C)C)NC(=O)[C@H](CCCCN)NC(=O)[C@H](CC(C)C)NC(=O)CNC(=O)[C@H](Cc2ccccc2)NC(=O)[C@@H](NC(=O)CNC(=O)[C@H](CCCCN)NC(=O)[C@H](CO)NC(=O)[C@H](CC(C)C)NC(=O)CNC(=O)[C@H](Cc2c[nH]cn2)NC(=O)[C@H](Cc2c[nH]cn2)NC(=O)[C@H](CCC(N)=O)NC(=O)[C@H](C)NC(=O)CNC(=O)[C@H](Cc2c[nH]cn2)NC(=O)[C@H](Cc2ccc(O)cc2)NC(=O)COCCOCCNC(=O)COCCOCCNC(=O)CC[C@H](NC(=O)CC[C@H](NC(=O)CCCCCCCCCCCCCCCCC(=O)O)C(=O)O)C(=O)O)CSSC[C@@H](C(=O)O)NC(=O)CNC(=O)[C@H](CC(C)C)NC(=O)CNC(=O)[C@H](CO)NC(=O)[C@H](CC(C)C)NC(=O)[C@H](CO)NC(=O)CNC1=O [compound 1323] ({C18 diacid-γGlu-γGlu-AEEA-AEEA}-YHGAQHHGLSKGCFGLKLERIGSLSGLGC-OH; disulfide 13-29; C-terminus assumed)	11.2

Same assay, conditions: potency relative to CNP22 (0065)

SMILES	hNPR2 0% HSA. [EC50% rel CNP] [%]
CC[C@H](C)[C@@H]1NC(=O)[C@H](CCCNC(=N)N)NC(=O)[C@H](CC(=O)O)NC(=O)[C@H](CC(C)C)NC(=O)[C@@H]2CCCN2C(=O)[C@H](CC(C)C)NC(=O)CNC(=O)[C@H](Cc2ccccc2)NC(=O)[C@@H](NC(=O)CNC(=O)[C@H](CCC(N)=O)NC(=O)[C@H](CO)NC(=O)CNC(=O)CNC(=O)[C@H](CCCCN)NC(=O)[C@H](CCCCN)NC(=O)[C@H](CCC(N)=O)NC(=O)[C@H](C)NC(=O)CNC(=O)[C@H](CCCCN)NC(=O)[C@H](Cc2ccc(O)cc2)NC(=O)[C@H](CCCCN)NC(=O)[C@H](Cc2c[nH]cn2)NC(=O)[C@H](C)NC(=O)[C@H](CCC(N)=O)NC(=O)[C@@H]2CCCN2C(=O)[C@H](Cc2c[nH]cn2)NC(=O)[C@H](CCC(=O)O)NC(=O)[C@H](CCC(N)=O)NC(=O)COCCOCCNC(=O)COCCOCCNC(=O)CC[C@H](NC(=O)CC[C@H](NC(=O)CC[C@H](NC(=O)CC[C@H](NC(=O)CCCCCCCCCCCCCCCCC(=O)O)C(=O)O)C(=O)O)C(=O)O)C(=O)O)CSSC[C@@H](C(=O)O)NC(=O)CNC(=O)[C@H](CC(C)C)NC(=O)CNC(=O)[C@H](CO)NC(=O)[C@H](CC(C)C)NC(=O)[C@H](CO)NC(=O)CNC1=O [compound 1400] ({C18 diacid-γGlu-γGlu-γGlu-γGlu-AEEA-AEEA}-QEHPQAHKYKGAQKKGGSQGCFGLPLDRIGSLSGLGC-OH; disulfide 21-37)	85.3
CC[C@H](C)[C@@H]1NC(=O)[C@H](CCCNC(=N)N)NC(=O)[C@H](CCC(=O)O)NC(=O)[C@H](CC(C)C)NC(=O)[C@H](CCCCN)NC(=O)[C@H](CC(C)C)NC(=O)CNC(=O)[C@H](Cc2ccccc2)NC(=O)[C@@H](NC(=O)CNC(=O)[C@H](CCCCN)NC(=O)[C@H](CO)NC(=O)[C@H](CC(C)C)NC(=O)CNC(=O)[C@H](Cc2c[nH]cn2)NC(=O)[C@H](Cc2c[nH]cn2)NC(=O)[C@H](CCC(N)=O)NC(=O)[C@H](C)NC(=O)CNC(=O)[C@H](Cc2c[nH]cn2)NC(=O)[C@H](Cc2ccc(O)cc2)NC(=O)COCCOCCNC(=O)COCCOCCNC(=O)CC[C@H](NC(=O)CC[C@H](NC(=O)CCCCCCCCCCCCCCCCC(=O)O)C(=O)O)C(=O)O)CSSC[C@@H](C(=O)O)NC(=O)CNC(=O)[C@H](CC(C)C)NC(=O)CNC(=O)[C@H](CO)NC(=O)[C@H](CC(C)C)NC(=O)[C@H](CO)NC(=O)CNC1=O [compound 1323] ({C18 diacid-γGlu-γGlu-AEEA-AEEA}-YHGAQHHGLSKGCFGLKLERIGSLSGLGC-OH; disulfide 13-29; C-terminus assumed)	0.8
